Reference: patent publication US12208080B2, “Compositions and methods for modulation of extracellular vesicle release and treatment of neurological disorders” (GEORGE MASON RESEARCH FOUNDATION, INC., priority 2018, dated 2025)

How the values were obtained:
[1] = system: HIV-1 infected monocytes (U1); assay: ZetaView nanoparticle tracking analysis of EVs released from HIV-1 infected U1 monocytes; assay type: cell-based; conditions: 5 days; for EV diameter (mean, median, peak): 1, 5, 10 μM or μg/mL, FIG. 8B-D; for release of EVs (EV concentration) / size of the EV (mean size): 1, 5, 20, 50 μM; for release of EVs (EV concentration): FIG. 2A; for size of the EV (mean size): FIG. 2B
Procedure: HIV-1 infected monocytes (U1) were treated with cannabidiol (“CBD”) (1, 5, 20, and 50 μM) or with tetrahydrocannabinol (“THC”) (1, 5, 20, and 50 μM) for 5 days. The supernatants from the treated cells were analyzed by Zeta View Nanoparticle Tracking analysis for changes in concentration. Student's t-test was used to determine significance (***=p<0.001, **=p<0.01, *=p<0.05).
HIV-1 infected monocytes (U1) were treated with cannabidiol (“CBD”) (1, 5, 20, and 50 μM) or with tetrahydrocannabinol (“THC”) (1, 5, 20, and 50 μM) for 5 days. The supernatants from the treated cells were analyzed by Zeta View Nanoparticle Tracking analysis for changes in mean size. Student's t-test was used to determine significance (***=p<0.001, **=p<0.01, *=p<0.05).
FIGS. 8A-8D are graphs showing Cannabis components lower EVs released from HIV-1 infected monocytes. HIV-1 infected U1 monocytic cells (1×10^6) were treated with a titration of CBD (1, 5, and 10 μM) and THC (1, 5, and 10 μg/mL) every day for 5 days. Cells were pelleted and supernatant was used for Zetaview NTA analysis to determine (A) EV concentration, (B) median size, (C) mean size, and (D) peak size. Each bar represents an average of three independent replicates. Student's t-test was used for statistical analysis, where *p-value≤0.05; **p-value≤0.01, ***p-value≤0.001.
HIV-1 infected monocytes (U1) were treated with a titration of CBD (1, 5, 20, and 50 μM) or a titration of THC (1, 5, 20, and 50 μM) for 5 days. Resulting supernatants from the treated cells were analyzed by Zeta View Nanoparticle Tracking analysis for changes in concentration (FIG. 2A) or mean size (FIG. 2B).
NTA was performed with the ZetaView Z-NTA (Particle Metrix) and its software (ZetaView 8.04.02). The machine was calibrated according to manufacturer's protocol. Following the measurement and removal of any outliers from the measured 11 positions, the mean size (diameter; nm) and the concentration of the sample (EV number) were analyzed by the associated ZetaView software. Measurement data from the ZetaView were used to calculate averages and standard deviations from technical triplicates using Microsoft Excel 2016.
Supernatants were harvested and analyzed using ZetaView NTA.
To verify that the observed decrease in EVs was not the result of modifications in packaging of various cargos into larger EVs, the mean diameter size (FIG. 8B), median diameter size (FIG. 8C), and peak diameter size (FIG. 8D) were also analyzed.

[2] = system: HIV-1 infected monocytes (U1); assay: Western blot/densitometry of EV-associated proteins (NT80/82-enriched supernatant) from U1 cells; assay type: cell-based; conditions: for CD81 (EV marker) in EVs / EV-associated Nef / EV-associated gp120: 1, 5, 20, 50 μM, FIG. 2C; for EV CD81 level / EV-associated Nef (30 kDa) / EV-associated myristoylated Nef dimer (70 kDa): CBD 1, 5, 10 μM, THC 1, 5, 10 μg/mL, FIG. 9A; for increase in EV-associated gp160 (densitometry): maximum, CBD lane 4 (10 μM), THC lane 7 (10 μg/mL)
cdk9/Cyclin Ti = target: T1, cdk9/Cyclin Ti (Homo sapiens, UniProt P50750); assay: Kinase assay: cdk9 immunoprecipitate, phosphorylation of histone H1; assay type: biochemical; conditions: for phosphorylation of Histone H1: U1, CBD 1 μM, THC 1 μg/mL every day for 5 days, anti-cdk9 IP, FIG. 17 legend
T1 construct: Lysates were immunoprecipitated with 10 μg of cdk9 or IgG antibodies overnight at 4° C; endogenous in cells; host or cells: U1 cells treated with CBD or THC for 5 days, then lysed and immunoprecipitated with anti-cdk9
Procedure: U1 cells (5×10^6) were treated with CBD (1 μM) and THC (1 μg/mL) every day for 5 days. Cells were then lysed, centrifuged and the supernatants (˜150 ug) incubated with anti-cdk9 and IgG antibodies as described in the Kinase Assay section (Materials and Methods), ran on a 4-20% gel and dried, followed by imaging for phosphorylated Histone 1 (p-H1). p-H1 Densitometry counts were calculated on the kinase blot and normalized to background gel pieces.
U1 cells (5×10^6) were treated with CBD (1 μM) and THC 1 μg/mL) every day for 5 d. Cells were pelleted by centrifugation at 15,000×g for 5 minutes, washed with 1×PBS, and lysed in 250 μL lysis buffer. Lysates were immunoprecipitated with 10 μg of cdk9 or IgG antibodies overnight at 4° C., followed by a 2 h incubation with A/G beads at 4° C. IP complexes were washed with TNE50+0.1% NP40 buffer and kinase buffer as described in (Guendel et al., 2014, Novel Neuroprotective GSK-3β Inhibitor Restricts Tat-Mediated HIV-1 Replication. Journal of Virology, 88(2), 1189-1208), followed by 1 h incubation period at 37° C. with γ-^32P ATP and purified histone H1. The samples (50%) were loaded and run through SDS-PAGE on a 4-20% Tris-Glycine gel, followed by staining with Coomassie blue, destain with destain buffer (50% methanol and 10% acetic acid), and dried for 2 h. The dried gels were exposed to a PhosphorImager Cassette, followed by analysis via Molecular Dynamic's ImageQuant Software.
U1 monocytes were treated with CBD (10 μM) and Flavo (50 nM) for short periods (0, 2 and 6 hours) due to the fact that HIV-1 transcription activity is a rapid event that can be scored using chromatin immunoprecipitation (ChIP) assay for factor occupancy. Treated samples were lysed and incubated with IgG control and Pol II (serine 2/5) antibodies for ChIP, followed by qPCR analysis for TAR DNA. […] As expected, there was no change in amount of TAR DNA pulled down with PolII with any treatment compared to the untreated control at 0 hours samples (lanes 1-3).

T1 sequence (P50750 whole entry): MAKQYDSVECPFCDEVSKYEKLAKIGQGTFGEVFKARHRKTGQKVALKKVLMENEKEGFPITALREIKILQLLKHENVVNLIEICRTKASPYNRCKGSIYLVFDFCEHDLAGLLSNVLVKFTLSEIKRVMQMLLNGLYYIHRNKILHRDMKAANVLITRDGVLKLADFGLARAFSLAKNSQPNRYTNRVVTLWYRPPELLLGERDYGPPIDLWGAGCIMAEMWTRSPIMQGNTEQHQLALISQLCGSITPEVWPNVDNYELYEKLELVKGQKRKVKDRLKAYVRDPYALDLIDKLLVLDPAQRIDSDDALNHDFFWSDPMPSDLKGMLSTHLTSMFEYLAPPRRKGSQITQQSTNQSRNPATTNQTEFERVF
T1 sequence (O60563 whole entry partner): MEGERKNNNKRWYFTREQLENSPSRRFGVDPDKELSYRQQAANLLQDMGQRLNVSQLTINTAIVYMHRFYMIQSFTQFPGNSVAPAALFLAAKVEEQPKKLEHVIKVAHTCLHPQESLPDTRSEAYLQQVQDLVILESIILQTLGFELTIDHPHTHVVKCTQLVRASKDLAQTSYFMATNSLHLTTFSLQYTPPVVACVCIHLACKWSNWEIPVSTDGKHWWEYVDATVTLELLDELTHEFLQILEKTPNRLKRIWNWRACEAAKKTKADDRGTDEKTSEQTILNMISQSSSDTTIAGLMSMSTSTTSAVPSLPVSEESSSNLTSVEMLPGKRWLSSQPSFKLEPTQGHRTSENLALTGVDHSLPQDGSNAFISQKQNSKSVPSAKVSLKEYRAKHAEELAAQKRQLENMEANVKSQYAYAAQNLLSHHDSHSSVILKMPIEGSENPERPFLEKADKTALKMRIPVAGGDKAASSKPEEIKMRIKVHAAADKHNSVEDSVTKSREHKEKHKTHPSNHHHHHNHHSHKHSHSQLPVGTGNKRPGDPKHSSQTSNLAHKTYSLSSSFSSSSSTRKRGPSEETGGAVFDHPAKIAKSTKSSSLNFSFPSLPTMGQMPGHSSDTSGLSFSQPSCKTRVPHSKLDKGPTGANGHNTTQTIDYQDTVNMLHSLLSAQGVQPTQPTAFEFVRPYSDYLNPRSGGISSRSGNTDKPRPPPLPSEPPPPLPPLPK

In the case of `C=C(C)[C@@H]1CCC(C)=C[C@H]1c1c(O)cc(CCCCC)cc1O` [CBD, 2-[1R-3-methyl-6R-(1-methylethenyl)-2-cyclohexen-1-yl]-5-pentyl-1,3-benzenediol], the “decrease in EVs compared to untreated control” value (“decrease in EVs” for short) ([1]; 1 μM, FIG. 8A lane 2) was 44%, the “decrease in EVs” value ([1]; 5 μM, FIG. 8A lane 3) was 76% and the “decrease in EVs” value ([1]; 10 μM, FIG. 8A lane 4) was 79%. The “EV diameter (mean, median, peak)” value [1] was “little to no change in diameter”, the “release of EVs (EV concentration)” value [1] was “significantly reduced the release of EVs” and the “size of the EV (mean size)” value [1] was “without altering the size of the EV”. The “CD81 (EV marker) in EVs” value ([2]; U1, 5 days) was “reduction in CD81”, the “EV-associated Nef” value ([2]; U1, 5 days) was “dose-dependent decrease” and the “EV-associated gp120” value ([2]; U1, 5 days) was “dose-dependent decrease”. The “reduction in EV-associated gp120 (densitometry)” value ([2]; U1, CBD 1, 5, 10 μM (lanes 2-4), 5 days) was 39-58%, the “EV CD81 level” value ([2]; U1, 5 days) was “decreased” and the “EV-associated Nef (30 kDa)” value ([2]; U1, 5 days) was “dose-dependent decrease”. For the same molecule, the “EV-associated myristoylated Nef dimer (70 kDa)” value ([2]; U1, 5 days) was “dose-dependent decrease”, the “reduction in EV CD81 expression (densitometry)” value ([2]; U1, low titer CBD (lane 2, 1 μM), 5 days, FIG. 10A) was 80% and the “decrease in EV-associated Nef (30 kDa), densitometry” value ([2]; greatest reduction, lane 3 (CBD 5 μM), FIG. 10) was “up to 79%”. The “increase in EV-associated gp160 (densitometry)” value [2] was “up to 125%”, the “cdk9/Cyclin Ti activity in vitro” value (cdk9/Cyclin Ti; FIG. 17) was “did not inhibit” and the “phosphorylation of Histone H1” value (cdk9/Cyclin Ti) was “lower phosphorylation of Histone H1”.

In the case of `CCCCCc1cc(O)c2c(c1)OC(C)(C)[C@@H]1CCC(C)=C[C@@H]21` [THC, Δ9-tetrahydrocannabinol], the “EV diameter (mean, median, peak)” value [1] was “little to no change in diameter”, the “number of EVs released” value ([1]; 1, 5, 10 μg/mL, FIG. 8A lanes 5-7, less drastic than CBD) was “significant reduction in the number of EVs” and the “release of EVs (EV concentration)” value [1] was “significantly reduced the release of EVs”. For the same molecule, the “size of the EV (mean size)” value [1] was “without altering the size of the EV”, the “CD81 (EV marker) in EVs” value ([2]; U1, 5 days) was “reduction in CD81” and the “EV-associated Nef” value ([2]; U1, 5 days) was “dose-dependent decrease”. The “EV-associated gp120” value ([2]; U1, 5 days) was “dose-dependent decrease”, the “EV CD81 level” value ([2]; U1, 5 days) was “decrease in CD81” and the “EV-associated Nef (30 kDa)” value ([2]; U1, 5 days) was “dose-dependent decrease”. The “EV-associated myristoylated Nef dimer (70 kDa)” value ([2]; U1, 5 days) was “dose-dependent decrease”, the “decrease in EV-associated myristoylated Nef dimer (70 kDa), densitometry” value ([2]; greatest reduction, lane 7 (THC 10 μg/mL), FIG. 10) was “up to 37%” and the “increase in EV-associated gp160 (densitometry)” value [2] was ≤ 57%. For the same molecule, the “phosphorylation of Histone H1” value (cdk9/Cyclin Ti) was “lower phosphorylation of Histone H1”.
